Structures are written as SMILES. Read-outs that look alike come from different tables or passages of the source.

The target of the experiment is T1, mitochondrial calcium/sodium antiporter (Rattus norvegicus, UniProt Q6AXS0).
T1 sequence (Q6AXS0 1-585): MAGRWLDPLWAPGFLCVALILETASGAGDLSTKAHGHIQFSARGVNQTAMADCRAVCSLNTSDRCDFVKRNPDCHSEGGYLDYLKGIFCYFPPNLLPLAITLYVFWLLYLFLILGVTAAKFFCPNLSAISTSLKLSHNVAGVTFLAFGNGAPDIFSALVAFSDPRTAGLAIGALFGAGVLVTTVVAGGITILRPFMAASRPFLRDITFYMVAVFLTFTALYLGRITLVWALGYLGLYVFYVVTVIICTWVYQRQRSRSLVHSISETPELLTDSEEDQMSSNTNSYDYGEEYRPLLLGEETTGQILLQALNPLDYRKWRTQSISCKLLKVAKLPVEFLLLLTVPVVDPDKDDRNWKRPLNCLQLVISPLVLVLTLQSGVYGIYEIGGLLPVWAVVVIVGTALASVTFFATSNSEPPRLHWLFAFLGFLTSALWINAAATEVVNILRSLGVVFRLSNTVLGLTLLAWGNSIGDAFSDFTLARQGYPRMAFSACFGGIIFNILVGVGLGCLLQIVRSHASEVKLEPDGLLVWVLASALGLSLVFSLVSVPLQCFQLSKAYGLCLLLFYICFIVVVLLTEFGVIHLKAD
The experiment in a line: Inhibition of mitochondrial calcium/sodium antiporter activity (NaCl-induced mitochondrial calcium efflux, calcium green 5N fluorescence). In kind it is cell-based. To be noted: digitonin-permeabilized INS-1 cells, 20 mM NaCl. The protocol: INS-1 rat insulinoma cells (see Example 16) were harvested by trypsinization, washed and resuspended at 10×10^6 cells/ml in assay buffer (250 mM sucrose, 10 mM HEPES, 2.5 mM K2HPO4, 5 mM succinate, pH 7.4) containing 0.007% digitonin, 60 μM CaCl2 and 0.05 μM calcium green 5N (Molecular Probes, Inc., Eugene, Oreg.). After a five-minute calcium loading incubation, ruthenium red (1 μM; Sigma, St. Louis, Mo.) was added to block further calcium uptake by mitochondria. Cell suspensions were dispensed into 96-well plates (100 μl per well, 1×10^6 cells per well) and candidate agents (i.e., candidate mitochondrial calcium/sodium antiporter inhibitors) were added to some sets of triplicate wells at concentrations of 1, 10 or 100 μM, while other sets of wells provided appropriate control conditions (e.g., buffer and vehicle controls). Baseline fluorescence measurements were made using a multiwell plate fluorimeter (F-MAX™, Molecular Devices Corp., Sunnyvale, Calif.; or PolarStar™, BMG Labtechnologies, Inc., Durham, N.C.) according to the manufacturer's instructions. Calcium efflux from mitochondria was then induced by adding NaCl to all wells to achieve a final concentration of 20 mM, and the rate of change in fluorescence in each well was monitored […] for two minutes and quantified using software included with the plate reader.

[1] abbreviates: Table 2, preferred compounds, read-out: IC50 ≦ 10 μM.
Setting [2] is: Table 3, more preferred compounds, read-out: IC50 ≦ 1 μM.

`Nc1ccc(Cl)cc1C(SCCNC(=O)c1ccc(S(N)(=O)=O)cc1)C1CCCCC1` (centres unmarked) [Compound 16y]: the IC50 under setting [1] is no more than 10 µM.

Turning to `Nc1ccc(Cl)cc1C(SCC(=O)NCCc1ccccc1)c1ccccc1Cl` (centres unmarked) [Compound 13c], the IC50 was no more than 10 µM under setting [1] and no more than 1 µM under setting [2].

For the compound `CCSC(c1cc(Cl)ccc1N)c1ccccc1Cl` (centres unmarked) [Compound 15c], the IC50 by setting is: under setting [1], no more than 10 µM; under setting [2], no more than 1 µM.

Regarding `O=C(CSC(c1cc(Cl)ccc1O)c1ccccc1Cl)N1CCCCC1` (centres unmarked) [Compound 13ag], the IC50 under setting [1] was no more than 10 µM.

`COC(=O)CSC(c1cc(Cl)ccc1NC(=O)C(F)(F)F)c1c(C)cccc1C` (centres unmarked) [Compound 11ba]: the IC50 by setting is: under setting [1], no more than 10 µM; under setting [2], no more than 1 µM.

Take `Nc1ccc(Cl)cc1C(SCC(=O)NCCc1ccc(O)c(I)c1)c1ccccc1Cl` (centres unmarked) [Compound 13t]: under setting [1], the IC50 was no more than 10 µM.

In the case of `Nc1ccc(Cl)cc1C(SCCNC(=O)c1ccc2c(c1)OCO2)C1CCCCC1` (centres unmarked) [Compound 16w], the IC50 under setting [2] is no more than 1 µM.

For `COC(=O)CSC(CC(C)C)c1cc(Cl)ccc1N` (centres unmarked) [Compound 11am], the IC50 under setting [1] was no more than 10 µM.

In the case of `COC(=O)CSC(c1ccccc1C)c1cc(Cl)ccc1N` (centres unmarked) [Compound 11aa], the IC50 is no more than 10 µM under setting [1] and no more than 1 µM under setting [2].

With `C#CCNC(=O)CSC(c1cc(Cl)ccc1N)c1ccccc1Cl` (centres unmarked) [Compound 13o], the IC50 under setting [1] was no more than 10 µM and the IC50 under setting [2] is no more than 1 µM.

Turning to `COc1ccc(CC(=O)NCCSC(c2cc(Cl)ccc2N)c2ccccc2Cl)cc1OC` (centres unmarked) [Compound 16b], the IC50 by setting is: under setting [1], no more than 10 µM; under setting [2], no more than 1 µM.

Turning to `Nc1ccc(Cl)cc1C(SCCNC(=O)C1CCC1)c1ccccc1Cl` (centres unmarked) [Compound 16h], the IC50 runs as follows: under setting [1], no more than 10 µM; under setting [2], no more than 1 µM.

For `Nc1ccc(Cl)cc1C(SCC(=O)NCCc1ccc(O)cc1)c1ccccc1Cl` (centres unmarked) [Compound 13s], the IC50 under setting [1] was no more than 10 µM and the IC50 under setting [2] was no more than 1 µM.

Turning to `Cc1noc(CSCC(c2cc(Cl)ccc2N)c2ccccc2F)n1` (centres unmarked) [Compound 22b], the IC50 was no more than 10 µM under setting [1] and no more than 1 µM under setting [2].

Turning to `Nc1ccc(Cl)cc1C(SCCNC(=O)Nc1ccccc1OC(F)(F)F)c1ccccc1Cl` (centres unmarked) [Compound 17b], the concentration for half-maximal inhibition (IC50) by setting is: under setting [1], no more than 10 µM; under setting [2], no more than 1 µM.

On to `COc1ccccc1C(=O)NCCSC(c1cc(Cl)ccc1N)C1CCCCC1` (centres unmarked) [Compound 16q], for which, under setting [2], the IC50 was no more than 1 µM.

As to `COc1ccc(C(=O)NCCSC(c2cc(Cl)ccc2N)C2CCCCC2)cc1OC` (centres unmarked) [Compound 16n], under setting [2], the IC50 is no more than 1 µM.

Regarding `Cc1noc(CSC(c2cccs2)c2cc(Cl)ccc2N)n1` (centres unmarked) [Compound 14g], the concentration for half-maximal inhibition (IC50) reads like this: under setting [1], no more than 10 µM; under setting [2], no more than 1 µM.

For the compound `Cc1noc(CSC(c2ccccc2)c2cc([N+](=O)[O-])ccc2N)n1` (centres unmarked) [Compound 14t], under setting [1], the half-inhibitory concentration (IC50) is no more than 10 µM.

As for `O=C(NCCc1ccccc1)C(c1cccc(Cl)c1)c1ccccc1[N+](=O)[O-]` (centres unmarked) [Compound 26b], the IC50 runs as follows: under setting [1], no more than 10 µM; under setting [2], no more than 1 µM.

Regarding `COC(=O)CSC(c1ccc(C)cc1C)c1cc(Cl)ccc1N` (centres unmarked) [Compound 11w], the IC50 under setting [1] is no more than 10 µM.

`Nc1ccc(Cl)cc1C(SCCNC(=O)c1ccncc1)C1CCCCC1` (centres unmarked) [Compound 16u]: under setting [2], the IC50 is no more than 1 µM.

On to `CNC(=O)CSCC(c1cc(Cl)ccc1N)c1ccccc1F` (centres unmarked) [Compound 21f], for which the IC50 runs as follows: under setting [1], no more than 10 µM; under setting [2], no more than 1 µM.

As for `NC(=O)CSCC(c1ccccc1)c1cc(Cl)ccc1N` (centres unmarked) [Compound 21d], the IC50 is, setting by setting: under setting [1], no more than 10 µM; under setting [2], no more than 1 µM.

Consider `Nc1ccc(Cl)cc1C(SCCNC(=O)COc1ccccc1)c1ccccc1Cl` (centres unmarked) [Compound 16l], for which the IC50 reads like this: under setting [1], no more than 10 µM; under setting [2], no more than 1 µM.

Take `Cc1cccc(C(SCc2nc(C)no2)c2cc(Cl)ccc2N)c1` (centres unmarked) [Compound 14i]: the IC50 under setting [1] is no more than 10 µM.

Consider `COc1cc(C(=O)NCCSC(c2cc(Cl)ccc2N)C(C)C)cc(OC)c1OC` (centres unmarked) [Compound 16ab], for which the 50% inhibitory concentration (IC50) under setting [2] was no more than 1 µM.

Consider `Nc1ccc(Cl)cc1C(SCC(=O)N1CCCCC1)c1ccccc1Cl` (centres unmarked) [Compound 13d], for which the IC50 reads like this: under setting [1], no more than 10 µM; under setting [2], no more than 1 µM.

For orientation: IC50 means the point on the concentration scale where inhibition reaches its midpoint.

The values are drawn from patent US6958352B2, “Compounds for inhibiting insulin secretion and methods related thereto” (SmithKline Beecham Corporation, priority 2002, dated 2005).
